The results in this text go back to US20140243322A1, “BIVALENT BROMODOMAIN LIGANDS, AND METHODS OF USING SAME” (Coferon, Inc., priority 2011, published 2014).

Experiment [1] relates to Myc mRNA. The experiment in a line: Inhibition of Myc expression (Myc mRNA) in MV4-11 cells. Type of experiment: cell-based. Particulars: Homo sapiens, 4 hours of treatment, read-out: EC50 range, Myc mRNA normalized to GAPDH mRNA. From the text: Inhibition of Myc Expression.
Experiment [2] concerns MV4-11 cells. Briefly: Inhibition of MV4-11 cell proliferation (Cell-Titer Glo). It counts as cell-based. To be noted: Homo sapiens, 72 hours of growth, read-out: GI50 range. The protocol:
Inhibition of MV4-11 Cell Proliferation.
MV4-11 cells (5000 cells in 50 μl volumes) in growth medium containing 10% FBS and 1% Pen/Strep were plated and grown overnight in 96 well plates and treated the next day with 3-fold dilutions of test compounds or with DMSO vehicle. After 72 hours of growth, 30 ul of Cell-Titer Glo reagent (Promega) was added to the wells and the plates incubated for 30 minutes. Luminescence was measured on a Spectramax M5 plate reader and GI50 values were calculated for each test compound.

The target in experiment [3] is N-terminal His 6-tagged BRD2 tandem protein. Briefly: Surface Plasmon Resonance (SPR) off-rate assay. It counts as binding. To be noted: immobilized BRD2 tandem protein; saturating concentrations injected 5 minutes, buffer 20 minutes. The protocol:
Surface Plasmon Resonance (SPR) Assay.
Off rates were determined using surface plasmon resonance measurements on a Bio-Rad ProteOn XPR 36 instrument. N-terminal His 6-tagged BRD2 tandem protein was immobilized by capturing on a ProteOn HTG sensor chip and then cross coupled to the surface using standard amine reactive chemistry. Selected bivalent inhibitors were injected on to the chip surface at saturating concentrations for 5 minutes followed by buffer for 20 minutes. The resulting sensorgrams were analyzed using the ProteOn XPR software to determine off-rates. Off rates for selected bivalent inhibitors were >100× slower when binding to the BRD2 tandem protein compared to the monovalent pharmacophores or compared to the bivalents binding to monobromodomain containing protein constructs.

In the case of `CCNC(=O)C[C@@H]1N=C(c2ccc(Cl)cc2)c2cc(OCCCNC(=O)C[C@@H]3N=C(c4ccc(Cl)cc4)c4cc(OC)ccc4-n4c(C)nnc43)ccc2-n2c(C)nnc21` [BRD-B-02, N-(3-(((4S)-6-(4-chlorophenyl)-4-(2-(ethylamino)-2-oxoethyl)-1-methyl-4H-benzo[f][1,2,4]triazolo[4,3-a][1,4]diazepin-8-yl)oxy)propyl)-2-((4S)-6-(4-chlorophenyl)-8-methoxy-1-methyl-4H-benzo[f][1,2,4]triazolo[4,3-a][1,4]diazepin-4-yl)acetamide], in experiment [1], the EC50 was 100 to 30000 nM. Besides, in experiment [2], the GI50 lay in the range of 0.1 to 30 nM. In experiment [3], the “kd (off rate)” value came out at 0.00011 s⁻¹.

In the case of `CCNC(=O)C[C@@H]1N=C(c2ccc(Cl)cc2)c2cc(OCCOCCNC(=O)C[C@@H]3N=C(c4ccc(Cl)cc4)c4cc(OC)ccc4-n4c(C)nnc43)ccc2-n2c(C)nnc21` [BRD-B-03, N-(2-(2-(((4S)-6-(4-chlorophenyl)-4-(2-(ethylamino)-2-oxoethyl)-1-methyl-4H-benzo[f][1,2,4]triazolo[4,3-a][1,4]diazepin-8-yl)oxy)ethoxy)ethyl)-2-((4S)-6-(4-chlorophenyl)-8-methoxy-1-methyl-4H-benzo[f][1,2,4]triazolo[4,3-a][1,4]diazepin-4-yl)acetamide], the GI50 in experiment [2] lay in the range of 30 to 100 nM. For the same molecule, the “kd (off rate)” value in experiment [3] was 0.00011 s⁻¹.

As to `CCNC(=O)C[C@@H]1N=C(c2ccc(Cl)cc2)c2cc(OCCOCCOCCOCCOCCOCCOCCNC(=O)C[C@@H]3N=C(c4ccc(Cl)cc4)c4cc(OC)ccc4-n4c(C)nnc43)ccc2-n2c(C)nnc21` [BRD-B-14, N-(20-(((4S)-6-(4-chlorophenyl)-4-(2-(ethylamino)-2-oxoethyl)-1-methyl-4H-benzo[f][1,2,4]triazolo[4,3-a][1,4]diazepin-8-yl)oxy)-3,6,9,12,15,18-hexaoxaicosyl)-2-((4S)-6-(4-chlorophenyl)-8-methoxy-1-methyl-4H-benzo[f][1,2,4]triazolo[4,3-a][1,4]diazepin-4-yl)acetamide], the EC50 in experiment [1] lay in the range of 0.1 to 30 nM. In experiment [2], the concentration for 50% growth inhibition (GI50) is 0.1 to 30 nM. For the same molecule, the “kd (off rate)” value in experiment [3] was 7.5e-05 s⁻¹.

`CCNC(=O)C[C@@H]1N=C(c2ccc(Cl)cc2)c2cc(OCCOCCOCCOCCOCCOCCOCCOCCNC(=O)C[C@@H]3N=C(c4ccc(Cl)cc4)c4cc(OC)ccc4-n4c(C)nnc43)ccc2-n2c(C)nnc21` [BRD-B-15, N-(23-(((4S)-6-(4-chlorophenyl)-4-(2-(ethylamino)-2-oxoethyl)-1-methyl-4H-benzo[f][1,2,4]triazolo[4,3-a][1,4]diazepin-8-yl)oxy)-3,6,9,12,15,18,21-heptaoxatricosyl)-2-((4S)-6-(4-chlorophenyl)-8-methoxy-1-methyl-4H-benzo[f][1,2,4]triazolo[4,3-a][1,4]diazepin-4-yl)acetamide]: the EC50 in experiment [1] was 100 to 30000 nM. The GI50 in experiment [2] was 0.1 to 30 nM. The “kd (off rate)” value in experiment [3] was determined as 8.3e-05 s⁻¹.

Regarding `CCNC(=O)C[C@@H]1N=C(c2ccc(Cl)cc2)c2cc(OCCOCCOCCOCCOCCOCCOCCOCCOCCNC(=O)C[C@@H]3N=C(c4ccc(Cl)cc4)c4cc(OC)ccc4-n4c(C)nnc43)ccc2-n2c(C)nnc21` [BRD-B-20, N-(26-(((4S)-6-(4-chlorophenyl)-4-(2-(ethylamino)-2-oxoethyl)-1-methyl-4H-benzo[f][1,2,4]triazolo[4,3-a][1,4]diazepin-8-yl)oxy)-3,6,9,12,15,18,21,24-octaoxahexacosyl)-2-((4S)-6-(4-chlorophenyl)-8-methoxy-1-methyl-4H-benzo[f][1,2,4]triazolo[4,3-a][1,4]diazepin-4-yl)acetamide], the EC50 in experiment [1] fell in the range of 0.1 to 30 nM. The GI50 in experiment [2] lay in the range of 0.1 to 30 nM.

Consider `COc1ccc2c(c1)C(c1ccc(Cl)cc1)=N[C@@H](CC(=O)NCCOCCOCCOCCOCCOCCOCCOCCOCCNC(=O)C[C@@H]1N=C(c3ccc(Cl)cc3)c3cc(OC)ccc3-n3c(C)nnc31)c1nnc(C)n1-2` [BRD-B-22, (S)—N,N′-(3,6,9,12,15,18,21,24-octaoxahexacosane-1,26-diyl)bis(2-((4S)-6-(4-chlorophenyl)-8-methoxy-1-methyl-4H-benzo[1,2,4]triazolo[4,3-a][1,4]diazepin-4-yl)acetamide)], for which the EC50 in experiment [1] was 30 to 100 nM. The GI50 in experiment [2] lay within 0.1 to 30 nM.

`COc1ccc2c(c1)C(c1ccc(Cl)cc1)=N[C@@H](CC(=O)NCCOCCOCCOCCOCCOCCOCCOCCOCCOCCNC(=O)C[C@@H]1N=C(c3ccc(Cl)cc3)c3cc(OC)ccc3-n3c(C)nnc31)c1nnc(C)n1-2` [BRD-B-23, (S)—N,N′-(3,6,9,12,15,18,21,24,27-nonaoxanonacosane-1,29-diyl)bis(2-((4S)-6-(4-chlorophenyl)-8-methoxy-1-methyl-4H-benzo[f][1,2,4]triazolo[4,3-a][1,4]diazepin-4-yl)acetamide)]: the EC50 in experiment [1] fell in the range of 30 to 100 nM. For the same molecule, in experiment [2], the GI50 was 0.1 to 30 nM.

As usually defined, the EC50 is the concentration giving half of the maximal effect. One may read the GI50 as the concentration giving 50% growth inhibition.
